Source: patent US9694016B2 (Novartis AG, priority 2013, dated 2017)
Like-named read-outs stand apart in the source and are kept apart here. One block for each molecule: values may come before it.

Target: b-Raf (V600E) (Homo sapiens (Human), UniProt P15056, V600E)
Settings: read-out: b-Raf IC-50, AlphaScreen
[1] = 60 min pre-incubation, reaction 3 hours at room temperature
[2] = 60 min pre-incubation, 3 hours reaction

Sequence of b-Raf (V600E) (P15056 whole entry V600E): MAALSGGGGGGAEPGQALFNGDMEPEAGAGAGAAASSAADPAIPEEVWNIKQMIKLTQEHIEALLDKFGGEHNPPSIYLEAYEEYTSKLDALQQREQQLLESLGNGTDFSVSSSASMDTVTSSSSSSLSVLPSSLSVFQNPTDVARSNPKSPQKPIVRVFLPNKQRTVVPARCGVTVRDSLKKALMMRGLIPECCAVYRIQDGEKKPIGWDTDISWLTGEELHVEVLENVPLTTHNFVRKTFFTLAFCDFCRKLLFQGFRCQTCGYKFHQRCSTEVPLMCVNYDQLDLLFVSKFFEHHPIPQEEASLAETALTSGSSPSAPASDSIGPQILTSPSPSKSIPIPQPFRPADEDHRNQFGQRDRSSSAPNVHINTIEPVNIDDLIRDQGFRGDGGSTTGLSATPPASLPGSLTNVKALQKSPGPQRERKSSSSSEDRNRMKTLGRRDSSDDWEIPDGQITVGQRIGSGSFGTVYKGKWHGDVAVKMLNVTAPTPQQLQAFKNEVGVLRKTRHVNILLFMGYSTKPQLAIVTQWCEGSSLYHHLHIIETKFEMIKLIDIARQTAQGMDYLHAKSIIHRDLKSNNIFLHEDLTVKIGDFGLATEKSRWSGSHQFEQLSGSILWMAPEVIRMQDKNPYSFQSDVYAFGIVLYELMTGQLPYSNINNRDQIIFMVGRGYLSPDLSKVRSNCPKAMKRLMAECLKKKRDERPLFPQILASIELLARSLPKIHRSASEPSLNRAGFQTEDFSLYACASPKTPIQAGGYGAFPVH

SMILES: Cc1ncc(NC(=O)c2ccnc(C(C)(F)F)c2)cc1-c1cc(N2CCOCC2)c2nccn2n1 [Example 871, 2-(1,1-difluoroethyl)-N-(6-methyl-5-(8-morpholinoimidazo[1,2-b]pyridazin-6-yl)pyridin-3-yl)isonicotinamide]
IC50 [1]: 0.6 nM

SMILES: Cc1ncc(NC(=O)c2cnnc(C3(C#N)CC3)c2)cc1-c1cnc(OCC(F)F)c(N2CCOCC2)c1 [Example 936, 6-(1-cyanocyclopropyl)-N-(6′-(2,2-difluoroethoxy)-2-methyl-5′-morpholino-[3,3′-bipyridin]-5-yl)pyridazine-4-carboxamide]
IC50 [1]: 7.55 nM

SMILES: CCc1cc(C(=O)Nc2ccc(C)c(-c3cc(N4CCOCC4)n(C)c(=O)c3)c2)ccn1 [Example 476, 2-ethyl-N-(4-methyl-3-(1-methyl-6-morpholino-2-oxo-1,2-dihydropyridin-4-yl)phenyl)isonicotinamide]
IC50 [2]: 0.6 nM

SMILES: COc1ncc(-c2cc(NC(=O)c3ccnc(C(C)(C)F)c3)cnc2C)cc1N1CCOCC1 [Example 281, N-(6′-methoxy-2-methyl-5′-morpholino-[3,3′-bipyridin]-5-yl)-2-(2-fluoropropan-2-yl)isonicotinamide]
IC50 (Table 2, 3 hours reaction): 6.3 nM

SMILES: Cc1ncc(NC(=O)c2ccnc(C(C)(C)F)c2)cc1-c1cnc(OC2CCOCC2)c(N2CCOCC2)c1 [Example 273, 2-(2-fluoropropan-2-yl)-N-(2-methyl-5′-morpholino-6′-((tetrahydro-2H-pyran-4-yl)oxy)-[3,3′-bipyridin]-5-yl)isonicotinamide]
IC50 (Table 2, 3 hours reaction): 2.7 nM

SMILES: CCOc1ncc(-c2cc(NC(=O)c3cc(CN(C)C)cc(C(F)(F)F)c3)cnc2C)nc1N1CCOCC1 [Example 545, 3-((dimethylamino)methyl)-N-(5-(5-ethoxy-6-morpholinopyrazin-2-yl)-6-methylpyridin-3-yl)-5-(trifluoromethyl)benzamide]
IC50 [2]: 16.5 nM

SMILES: CCOc1cccc(C(=O)Nc2cnc(C)c(-c3cc(N4CCOCC4)c(=O)n(C)c3)c2)c1 [Example 397, N-(1′,2-dimethyl-5′-morpholino-6′-oxo-1′,6′-dihydro-[3,3′-bipyridin]-5-yl)-3-ethoxybenzamide]
IC50 (Table 2, 3 hours reaction): 10 nM

SMILES: CCC(F)(F)c1cc(C(=O)Nc2cnc(C)c(-c3cncc(N4CCOCC4)n3)c2)ccn1 [Example 537, 2-(1,1-difluoropropyl)-N-(6-methyl-5-(6-morpholinopyrazin-2-yl)pyridin-3-yl)isonicotinamide]
IC50 [2]: 4.4 nM

SMILES: Cc1ncc(NC(=O)c2ccnc(C(C)(C)C#N)c2)cc1-c1cnc(Cl)c(N2CCOCC2)c1 [Example 289, N-(6′-chloro-2-methyl-5′-morpholino-[3,3-bipyridin]-5-yl)-2-(2-cyanopropan-2-yl)isonicotinamide]
IC50 (Table 2, 3 hours reaction): 15.6 nM

SMILES: CCOc1nnc(-c2cc(NC(=O)c3ccnc(C(C)(C)F)c3)cnc2C)cc1N1CCOCC1 [Example 610, N-(5-(6-ethoxy-5-morpholinopyridazin-3-yl)-6-methylpyridin-3-yl)-2-(2-fluoropropan-2-yl)isonicotinamide]
IC50 [2]: 4.5 nM

SMILES: Cc1ncc(NC(=O)c2ccnc(C(C)(C)C#N)c2)cc1-c1cnc(OC(C)C)c(N2CCOCC2)c1 [Example 954, 2-(2-cyanopropan-2-yl)-N-(6′-isopropoxy-2-methyl-5′-morpholino-[3,3′-bipyridin]-5-yl)isonicotinamide]
IC50 [1]: 7.3 nM

SMILES: Cc1ccc(NC(=O)c2ccnc(C3CC3)c2)cc1-c1cc(OCCO)nc(N2CCOCC2)c1 [Example 1157, 2-cyclopropyl-N-(3-(2-(2-hydroxyethoxy)-6-morpholinopyridin-4-yl)-4-methylphenyl)isonicotinamide]
IC50 [1]: 0.43 nM

Results, then the molecule that gave them:

IC50 [2]: 0.9 nM
SMILES: Cc1ccc(NC(=O)c2cccc(C(F)(F)F)c2)cc1-c1nc(N2CCOCC2)c2occc2n1 [Example 838, N-(4-methyl-3-(4-morpholinofuro[3,2-d]pyrimidin-2-yl)phenyl)-3-(trifluoromethyl)benzamide]

IC50 [2]: 200 nM
SMILES: Cc1ncc(NC(=O)c2cccc(C(F)(F)F)c2)cc1-c1cc(N2CCOCC2)nc(C(C)(C)O)n1 [Example 788, N-(5-(2-(2-hydroxypropan-2-yl)-6-morpholinopyrimidin-4-yl)-6-methylpyridin-3-yl)-3-(trifluoromethyl)benzamide]

IC50 [2]: 2.1 nM
SMILES: Cc1ccc(NC(=O)c2cccc(C(F)(F)F)c2)cc1-c1nc2c(c(N3CCOCC3)n1)CNCC2 [Example 835, N-(4-methyl-3-(4-morpholino-5,6,7,8-tetrahydropyrido[4,3-d]pyrimidin-2-yl)phenyl)-3-(trifluoromethyl)benzamide]

IC50 (Table 2, 3 hours reaction): 1.9 nM
SMILES: Cc1ccc(NC(=O)c2ccnc(C(C)(C)O)c2)cc1-c1cnc(OC(F)F)c(N2CCOCC2)c1 [Example 226, N-(3-(6-(difluoromethoxy)-5-morpholinopyridin-3-yl)-4-methylphenyl)-2-(2-hydroxypropan-2-yl)isonicotinamide]

IC50 [1]: 2.82 nM
SMILES: Cc1ncc(NC(=O)c2ccnc(C(F)(F)F)c2)cc1-c1cc(C2COCCO2)nc(N2CCOCC2)c1 (stereo not drawn) [Example 1165, N-(2′-(1,4-dioxan-2-yl)-2-methyl-6′-morpholino-[3,4′-bipyridin]-5-yl)-2-(trifluoromethyl)isonicotinamide]

IC50 (Table 2, 3 hours reaction): 3.1 nM
SMILES: Cc1ncc(NC(=O)c2cccc(C(F)(F)F)c2)cc1-c1cnc(O[C@H]2CC[C@H](O)CC2)c(N2CCOCC2)c1 [Example 316, N-(6′-(((1r,4r)-4-hydroxycyclohexyl)oxy)-2-methyl-5′-morpholino-[3,3′-bipyridin]-5-yl)-3-(trifluoromethyl)benzamide]

IC50 [2]: 0.5 nM
SMILES: COCCOc1nnc(-c2cc(NC(=O)c3ccnc(C(C)(F)F)c3)ccc2C)cc1N1CCOCC1 [Example 597, 2-(1,1-difluoroethyl)-N-(3-(6-(2-methoxyethoxy)-5-morpholinopyridazin-3-yl)-4-methylphenyl)isonicotinamide]

IC50 [1]: 70.6 nM
SMILES: Cc1ccc(NC(=O)c2cnnc(C(C)(C)C#N)c2)cc1-c1cc(NCCO)nc(N2CCOCC2)c1F [Example 1012, 6-(2-cyanopropan-2-yl)-N-(3-(3-fluoro-6-((2-hydroxyethyl)amino)-2-morpholinopyridin-4-yl)-4-methylphenyl)pyridazine-4-carboxamide]

IC50 [2]: 2.5 nM
SMILES: CCN1CCN(c2cc(C(=O)Nc3ccc(C)c(-c4cc(N5CCOCC5)n(C)c(=O)c4)c3)cc(C(F)(F)F)c2)CC1 [Example 490, 3-(4-ethylpiperazin-1-yl)-N-(4-methyl-3-(1-methyl-6-morpholino-2-oxo-1,2-dihydropyridin-4-yl)phenyl)-5-(trifluoromethyl)benzamide]

IC50 [2]: 1.1 nM
SMILES: Cc1ccc(NC(=O)c2ccnc(C(F)F)c2)cc1-c1cc(N2CCOCC2)n(C)c(=O)c1 [Example 486, 2-(difluoromethyl)-N-(4-methyl-3-(1-methyl-6-morpholino-2-oxo-1,2-dihydropyridin-4-yl)phenyl)isonicotinamide]

IC50 [2]: 9.6 nM
SMILES: Cc1ccc(NC(=O)c2ccnc(C(C)(C)O)c2)cc1-c1cc(N2CCOCC2)c(=O)n(C)n1 [Example 638, 2-(2-hydroxypropan-2-yl)-N-(4-methyl-3-(1-methyl-5-morpholino-6-oxo-1,6-dihydropyridazin-3-yl)phenyl)isonicotinamide]

IC50 [1]: 3700 nM
SMILES: Cc1ccc(NC(=O)c2ccnc(C(C)(C)C#N)c2)cc1-c1nc2c(c(N3CCOCC3)n1)CCNC2 [Example 865, 2-(2-cyanopropan-2-yl)-N-(4-methyl-3-(4-morpholino-5,6,7,8-tetrahydropyrido[3,4-d]pyrimidin-2-yl)phenyl)isonicotinamide]
